Some test systems named below: KM12 colon; TK-10 renal; 786-0 renal; HOP-92 NSCLC; SK-MEL-5 melanoma; SK-OV-3 ovarian; U251 CNS; SNB-75 CNS; OVCAR-5 ovarian; EKVX NSCLC.
Holding throughout (experiment): DTP human tumour cell line panel, 48 h

Usually TGI stands for the concentration at which net growth stops. The GI50 is the concentration at which growth is held to half of that of the control.

Each structure is given as a SMILES string. “And” between values parts separate entries of the source, which are not always exact repeats. Equal entries are not always repeated.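 Protocol summary: plate cells (96-well), add compound at 5 concentrations, incubate 48 h, interpolate endpoints linearly. GI50: concentration for 50% inhibition of growth. TGI is the concentration that stops growth completely.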

For `CC1(O)CC2C(CC1SCc1ccccc1)C2(C)C` (stereo not drawn), the TGI in the assay with KM12 colon is 50.8 µM and 34.6 µM; in the assay on TK-10 renal, > 100 µM and 34.1 µM; with 786-0 renal it was 42.7 µM and 29.3 µM; with HOP-92 NSCLC, 66.4 µM and 14.4 µM; in the assay on SK-MEL-5 melanoma, 40.4 µM and 25.8 µM; in the assay with SK-OV-3 ovarian, > 100 µM and 29.2 µM. For the same compound, the TGI in the assay with U251 CNS was 44.7 µM and 29.7 µM; in the assay with SNB-75 CNS, 92.4 µM and 28.6 µM; in the assay with OVCAR-5 ovarian, 40.4 µM and 31.8 µM; in the assay on EKVX NSCLC it was 77.3 µM and 31.7 µM. Besides, the GI50 in the assay with TK-10 renal is 57.1 µM and 19.9 µM; with SK-OV-3 ovarian, 37.5 µM and 15.7 µM; in the assay on SNB-75 CNS, 33.8 µM and 15.3 µM.

With `C=C(/C=C/C=C(\CO)CCC=C(C)C)[C@H]1CCC2([C@H](CCCO)/C(=C(/C)C=O)CC[C@]2(C)O)[C@H]1O` (stereo partly drawn), the TGI in the assay with KM12 colon, in the assay on TK-10 renal, with 786-0 renal, in the assay on HOP-92 NSCLC, in the assay with SK-MEL-5 melanoma and with SK-OV-3 ovarian was over 100 µM in each case. In addition, the TGI in the assay on U251 CNS, with SNB-75 CNS, in the assay on OVCAR-5 ovarian and in the assay on EKVX NSCLC was over 100 µM each time.

In the case of `C#CCN(CCCOc1ccc(Cl)cc1Cl)CCCSC(=O)CCCCCN1/C(=C\C=C2/CCCC(/C=C/C3=[N+](CCCCCC(=O)[O-])c4ccccc4C3(C)C)=C2Cl)C(C)(C)c2ccccc21`, the GI50 in the assay with KM12 colon is 1.56 µM; in the assay on TK-10 renal it was 2.21 µM; with 786-0 renal, 1.78 µM; with HOP-92 NSCLC, 1.57 µM; with SK-MEL-5 melanoma, 1.62 µM; in the assay with SK-OV-3 ovarian it was 2.97 µM. The GI50 is 0.733 µM in the assay on U251 CNS, 1.3 µM in the assay with SNB-75 CNS, 1.78 µM with OVCAR-5 ovarian and 2.42 µM in the assay with EKVX NSCLC. Further, the concentration for total growth inhibition (TGI) was 4.46 µM in the assay with KM12 colon; 5.17 µM in the assay with TK-10 renal; 3.5 µM in the assay on 786-0 renal; 3.53 µM with HOP-92 NSCLC; 3.02 µM with SK-MEL-5 melanoma; 8.86 µM with SK-OV-3 ovarian. The total growth inhibition concentration (TGI) with U251 CNS turned out to be 2.11 µM; in the assay on SNB-75 CNS it was 3.85 µM; with OVCAR-5 ovarian it was 3.92 µM; in the assay on EKVX NSCLC it was 12.8 µM.

`Clc1ccc(/C=C/c2csnn2)cc1`: the total growth inhibition concentration (TGI) with KM12 colon, with TK-10 renal, with 786-0 renal, in the assay with HOP-92 NSCLC, with SK-MEL-5 melanoma and with SK-OV-3 ovarian was over 100 µM each time. The TGI in the assay with U251 CNS, in the assay with SNB-75 CNS, with OVCAR-5 ovarian and in the assay with EKVX NSCLC was over 100 µM in each case.

With `Nc1nc2c(ncn2C2OC(CO)C(O)C2O)c(=O)[nH]1` (stereo not drawn), the GI50 in the assay with KM12 colon was over 100 µM; in the assay on 786-0 renal, over 100 µM; with HOP-92 NSCLC, > 100 µM and 82.5 µM; in the assay with SK-MEL-5 melanoma, over 100 µM; in the assay on U251 CNS, over 100 µM; with SNB-75 CNS, over 100 µM. In the assay with EKVX NSCLC, the GI50 was over 100 µM. Further, the total growth inhibition concentration (TGI) in the assay on KM12 colon is > 100 µM and 224 µM; in the assay on 786-0 renal, over 100 µM; in the assay with HOP-92 NSCLC, > 100 µM and 263 µM; with SK-MEL-5 melanoma, > 100 µM and 103 µM; in the assay on SK-OV-3 ovarian it was > 100 µM and 263 µM; in the assay on U251 CNS it was > 100 µM and 237 µM. For the same compound, the concentration for total growth inhibition (TGI) is > 100 µM and 38 µM in the assay with SNB-75 CNS; > 100 µM and 291 µM with OVCAR-5 ovarian; > 100 µM and 146 µM in the assay on EKVX NSCLC.

Consider `c1ccc2[nH]c(-c3cscn3)nc2c1`, for which the total growth inhibition concentration (TGI) in the assay with KM12 colon, in the assay on TK-10 renal, in the assay on 786-0 renal, in the assay on HOP-92 NSCLC, with SK-MEL-5 melanoma and with SK-OV-3 ovarian was over 100 µM each time. In addition, the TGI in the assay with U251 CNS, in the assay with SNB-75 CNS, with OVCAR-5 ovarian and with EKVX NSCLC was over 100 µM in each case.

In the case of `O=C(/C=C/c1ccccn1)c1ccccc1`, the GI50 in the assay with KM12 colon was 4.13 µM; in the assay with TK-10 renal, 12.8 µM; in the assay on 786-0 renal, 2.84 µM; in the assay with HOP-92 NSCLC, 10.4 µM; with SK-MEL-5 melanoma, 12.1 µM; in the assay with SK-OV-3 ovarian it was 16.8 µM. For the same compound, the GI50 in the assay on U251 CNS is 1.94 µM; in the assay with SNB-75 CNS it was 5.57 µM; in the assay on OVCAR-5 ovarian, 6.52 µM; in the assay with EKVX NSCLC, 15.4 µM. The TGI stood at 15.5 µM in the assay with KM12 colon; 25.6 µM with TK-10 renal; 10.7 µM with 786-0 renal; 23.6 µM in the assay on HOP-92 NSCLC; 24.8 µM with SK-MEL-5 melanoma; 30.5 µM in the assay on SK-OV-3 ovarian. The TGI in the assay with U251 CNS was found to be 5.43 µM; in the assay with SNB-75 CNS it was 21 µM; in the assay with OVCAR-5 ovarian it was 24.1 µM; in the assay on EKVX NSCLC it was 31.2 µM.

Consider `Cc1nc(Nc2ccc(Cl)c(Cl)c2)sc1C(/C=C/c1ccc2c(c1)OCO2)=N/Nc1ccc([N+](=O)[O-])cc1[N+](=O)[O-]`, for which the TGI in the assay on KM12 colon is over 100 µM; in the assay with TK-10 renal, over 94.4 µM; in the assay with 786-0 renal, over 100 µM; in the assay on HOP-92 NSCLC it was over 100 µM; in the assay with SK-MEL-5 melanoma, over 100 µM; in the assay on SK-OV-3 ovarian it was over 100 µM. The TGI is over 100 µM with U251 CNS, 32.8 µM in the assay with SNB-75 CNS, over 100 µM in the assay with OVCAR-5 ovarian and over 100 µM in the assay with EKVX NSCLC.

For `O=C(O)c1cc2ccc(Cl)cc2c(O)c1C1=CCCCC1`, the TGI in the assay on KM12 colon was over 100 µM; in the assay on TK-10 renal, over 100 µM; in the assay on 786-0 renal it was over 100 µM; in the assay with HOP-92 NSCLC it was 85.9 µM; with SK-MEL-5 melanoma it was 81.9 µM; in the assay with SK-OV-3 ovarian it was over 100 µM. In addition, the TGI is over 100 µM in the assay on U251 CNS, 34.7 µM in the assay with SNB-75 CNS, over 100 µM with OVCAR-5 ovarian and over 100 µM in the assay on EKVX NSCLC.

In the case of `CNC(=O)N(CCCCC(NC(C)=O)C(=O)NCc1ccccc1)Cc1ccccc1` (stereo not drawn), the TGI in the assay on KM12 colon, with TK-10 renal, with 786-0 renal, in the assay with HOP-92 NSCLC, in the assay on SK-MEL-5 melanoma and in the assay with SK-OV-3 ovarian was over 100 µM in each case. Also, the TGI with U251 CNS, with SNB-75 CNS, with OVCAR-5 ovarian and in the assay on EKVX NSCLC was over 100 µM each time.

In the case of `O=[N+]([O-])/C=C/c1cn(CCCCCCCCn2cc(/C=C/[N+](=O)[O-])c3ccccc32)c2ccccc12`, the TGI with KM12 colon, with TK-10 renal, in the assay with 786-0 renal, with HOP-92 NSCLC, in the assay with SK-MEL-5 melanoma and with SK-OV-3 ovarian was over 10 µM in each case. The TGI with SNB-75 CNS, with OVCAR-5 ovarian and in the assay on EKVX NSCLC was over 10 µM in each case.

Source of the values: PubChem BioAssay (NCI).
